Data on twelve molecules can be found in patent US6528494B2 (priority 1996, dated 2003).

Structures can show the parent of a compound that is named as a salt. Some results are limits rather than exact numbers.

Test [1] relates to lung eosinophil accumulation. As to the kind of experiment: Antigen-induced lung eosinophil accumulation in sensitised guinea pigs. It counts as in vivo, guinea pig. Conditions: airstream concentration; inhaled route, 30 min aerosol before ovalbumin challenge; lavage 24 h after challenge. As for the experimental part: (2) Antigen-induced lung eosinophil accumulation in sensitised guinea pigs.
Ovalbumin sensitised guinea pigs were dosed with mepyramine (1 mg/kg ip) to protect against anaphylactic bronchospasm. A compound of the invention was then given by the inhaled route (30 min breathing of an aerosol of the compound) immediately prior to ovalbumin challenge (30 min breathing of an aerosol generated from a 50 ug/ml solution of ovalbumin). Twenty four hours after challenge, the guinea pigs were killed and the lungs lavaged. Total and differential leucocyte counts were then obtained for the bronchoalveolar lavage fluid and the dose of test compound giving a 50% reduction in eosinophil accumulation (ED50) was determined (Sanjar et al. 1992).

Another test concerns the target T1, adenosine 3 receptor (Homo sapiens, UniProt P0DMS8).
T1 sequence (P0DMS8 1-318): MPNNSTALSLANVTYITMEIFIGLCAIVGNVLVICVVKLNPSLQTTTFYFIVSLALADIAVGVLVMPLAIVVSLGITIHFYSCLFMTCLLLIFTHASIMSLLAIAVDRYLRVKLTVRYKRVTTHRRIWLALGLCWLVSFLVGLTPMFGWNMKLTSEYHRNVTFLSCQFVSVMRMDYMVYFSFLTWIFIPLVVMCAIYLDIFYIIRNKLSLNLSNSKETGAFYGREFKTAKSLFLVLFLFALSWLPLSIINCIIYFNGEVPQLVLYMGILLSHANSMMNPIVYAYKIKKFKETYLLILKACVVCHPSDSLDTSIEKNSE
Description: Agonist activity against adenosine 3 receptor (CHO cells, forskolin-enhanced cAMP/SPAP reporter). It is filed as cell-based. Conditions: CHO cells transfected with human receptor; forskolin-enhanced cAMP via SPAP; mean of all the versions tested. The method, then: (§1) (1) Agonist activity against adenosine 2a, adenosine 1 and adenosine 3 receptor subtypes.
(§2) The effect of test compounds was determined by their effects on basal levels of cAMP (A2a) or on forskolin-enhanced cAMP (A1 and A3) as reflected by changes in levels of SPAP.

The next test concerns the target adenosine 2a receptor (Homo sapiens, UniProt P29274). As to the kind of experiment: Agonist activity against adenosine 2a receptor (CHO cells, cAMP/SPAP reporter). Conditions: CHO cells transfected with human receptor; basal cAMP via SPAP; mean of all the versions tested. It counts as cell-based. The method, then: as §1, §2
A further test concerns the target T2, adenosine 1 receptor (Homo sapiens, UniProt P30542).
T2 sequence (P30542 1-326): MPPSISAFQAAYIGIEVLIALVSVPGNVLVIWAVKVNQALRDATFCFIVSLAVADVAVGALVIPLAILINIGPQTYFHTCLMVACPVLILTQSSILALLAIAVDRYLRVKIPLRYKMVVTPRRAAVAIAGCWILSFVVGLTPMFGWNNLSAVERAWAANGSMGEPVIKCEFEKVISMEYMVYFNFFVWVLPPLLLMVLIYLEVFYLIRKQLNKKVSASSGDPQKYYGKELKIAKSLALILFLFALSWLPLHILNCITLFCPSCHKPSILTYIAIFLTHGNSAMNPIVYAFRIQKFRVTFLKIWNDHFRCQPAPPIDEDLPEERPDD
Description: Agonist activity against adenosine 1 receptor (CHO cells, forskolin-enhanced cAMP/SPAP reporter). It is filed as cell-based. Conditions: CHO cells transfected with human receptor; forskolin-enhanced cAMP via SPAP; mean of all the versions tested. The method, then: as §1, §2

adenosine 2a receptor, sequence (P29274 whole entry): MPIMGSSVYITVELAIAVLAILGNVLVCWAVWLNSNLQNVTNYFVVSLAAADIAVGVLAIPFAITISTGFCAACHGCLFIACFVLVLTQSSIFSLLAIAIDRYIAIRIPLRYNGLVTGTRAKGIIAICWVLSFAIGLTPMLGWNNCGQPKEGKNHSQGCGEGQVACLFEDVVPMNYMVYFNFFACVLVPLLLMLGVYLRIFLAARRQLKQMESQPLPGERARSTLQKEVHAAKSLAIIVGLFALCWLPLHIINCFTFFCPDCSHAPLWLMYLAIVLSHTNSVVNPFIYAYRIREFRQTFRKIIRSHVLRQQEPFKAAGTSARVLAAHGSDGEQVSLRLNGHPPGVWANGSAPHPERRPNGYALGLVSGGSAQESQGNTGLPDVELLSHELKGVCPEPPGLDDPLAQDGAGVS

On to `CCn1nnc([C@H]2O[C@@H](n3cnc4c(NCC(c5ccccc5)c5ccccc5)nc(N[C@H]5CC[C@H](N)CC5)nc43)[C@H](O)[C@@H]2O)n1.Cl.Cl` (relative stereo) [Example 1a, rel-(2R,3R,4S,5R)-2-[2-(trans-4-Amino-cyclohexylamino)-6-(2,2-diphenyl-ethylamino)-purin-9-yl]-5-(2-ethyl-2H-tetrazol-5-yl)-tetrahydro-furan-3,4-diol Dihydrochloride], for which, in test [1], the “ED50 (50% reduction in eosinophil accumulation)” value was found to be 6 ng/mL.

Take `CCn1nnc([C@H]2O[C@@H](n3cnc4c(N)nc(N[C@H](CO)Cc5ccccc5)nc43)[C@H](O)[C@@H]2O)n1.Cl` [Example 11a, (2R,3R,4S,5R)-2-[6-Amino-2-(1S-hydroxymethyl-2-phenyl-ethylamino)-purin-9-yl]-5-(2-ethyl-2H-tetrazol-5-yl)-tetrahydro-furan-3,4-diol Hydrochloride]: in test [1], the “ED50 (50% reduction in eosinophil accumulation)” value turned out to be 6 ng/mL.

On to `Cn1nnc(C2OC(n3cnc4c(NC(CO)Cc5ccccc5)nc(NC(CO)Cc5ccccc5)nc43)C(O)C2O)n1` [Example 110, (2R,3R,4S,5R)-2-[2,6-Bis-(1S-Hydroxymethyl-2-phenyl-ethylamino)-purin-9-yl]-5-(2-methyl-2H-tetrazol-5-yl)-tetrahydro-furan-3,4-diol Formate], for which, on adenosine 3 receptor, the “A3 EC50 as a ratio of that of NECA” value was above 315. Also, on adenosine 2a receptor, the “A2a EC50 as a ratio of that of NECA” value was found to be 5.00. The “A1 EC50 as a ratio of that of NECA” value at adenosine 1 receptor is 3.13.

`Cn1nnc(C2OC(n3cnc4c(NC(CO)Cc5ccccc5)nc(NCCN5CCCC5)nc43)C(O)C2O)n1` [Example 111, (2R,3R,4S,5R)-2-[6-(1S-Hydroxymethyl-2-phenyl-ethylamino)-2-(2-pyrrolidin-1-yl-ethylamino)-purin-9-yl]-5-(2-methyl-2H-tetrazol-5-yl)-tetrahydro-furan-3,4-diol bis(Formate)]: the “A3 EC50 as a ratio of that of NECA” value on adenosine 3 receptor is reported as above 315. Moreover, at adenosine 2a receptor, the “A2a EC50 as a ratio of that of NECA” value turned out to be 2.92. Besides, the “A1 EC50 as a ratio of that of NECA” value at adenosine 1 receptor stood at 298.50.

As to `CCn1nnc([C@H]2O[C@@H](n3cnc4c(NCC(c5ccccc5)c5ccccc5)nc(NC5CCOCC5)nc43)[C@H](O)[C@@H]2O)n1.O=C(O)C(F)(F)F` [Example 113, (2R, 3R,4S, 5R)-2-[6-(2,2-Diphenyl-ethylamino)-2-(tetrahydro-pyran-4-ylamino)-purin-9-yl]-5-(2-ethyl-2H-tetrazol-5-yl)-tetrahydro-furan-3,4-diol Trifluoroacetate], the “A3 EC50 as a ratio of that of NECA” value at adenosine 3 receptor is on record as above 297.0. For the same molecule, the “A2a EC50 as a ratio of that of NECA” value at adenosine 2a receptor came out at 0.72. At adenosine 1 receptor, the “A1 EC50 as a ratio of that of NECA” value was found to be 184.4.

For `CCn1nnc([C@H]2O[C@@H](n3cnc4c(NCC(c5ccccc5)c5ccccc5)nc(NC5CCSCC5)nc43)[C@H](O)[C@@H]2O)n1.O=C(O)C(F)(F)F` [Example 114], on adenosine 3 receptor, the “A3 EC50 as a ratio of that of NECA” value is listed as above 2972.0. Besides, on adenosine 2a receptor, the “A2a EC50 as a ratio of that of NECA” value came out at 0.58. In addition, the “A1 EC50 as a ratio of that of NECA” value at adenosine 1 receptor amounted to 242.2.

As to `CCn1nnc([C@H]2O[C@@H](n3cnc4c(NCC(c5ccccc5)c5ccccc5)nc(NC5CCS(=O)(=O)CC5)nc43)[C@H](O)[C@@H]2O)n1.O=C(O)C(F)(F)F` [Example 115, (2R,3R,4S,5R)-2-[6-(2,2-Diphenyl-ethylamino)-2-(1,1--dioxo-hexahydro-1.lamda.6-thiopyran-4-ylamino)-purin-9-yl]-5-(2-ethyl-2H-tetrazol-5-yl)-tetrahydro-furan-3,4-diol Trifluoroacetate], the “A3 EC50 as a ratio of that of NECA” value on adenosine 3 receptor was above 297.0. In addition, the “A2a EC50 as a ratio of that of NECA” value on adenosine 2a receptor came out at 0.36. In addition, the “A1 EC50 as a ratio of that of NECA” value on adenosine 1 receptor is given as 37.7.

As to “(2R,3R,4S,5R)-2-[2-(1-Benzyl-pyrrolidin-3-ylamino)-6-cyclopentylamino-purin-9-yl]-5-(2-ethyl-2H-tetrazol-5-yl)-tetrahydro-furan-3,4-diol bis(Formate) [Example 66]”, the “A3 EC50 as a ratio of that of NECA” value on adenosine 3 receptor is above 158. Further, at adenosine 2a receptor, the “A2a EC50 as a ratio of that of NECA” value came to 1.53. Moreover, the “A1 EC50 as a ratio of that of NECA” value at adenosine 1 receptor came out at 48.60.

Turning to “(2R,3R,4S,5R)-2-[2-(trans-4-Amino-cyclohexylamino)-6-cyclopentylamino-purin-9-yl]-5-(2-methyl-2H-tetrazol-5-yl)-tetrahydro-furan-3,4-diol Diformate [Example 92]”, the “A3 EC50 as a ratio of that of NECA” value at adenosine 3 receptor was above 192. The “A2a EC50 as a ratio of that of NECA” value at adenosine 2a receptor is 1.24. Further, at adenosine 1 receptor, the “A1 EC50 as a ratio of that of NECA” value came to 253.70.

For “(2R,3R,4S,5R)-2-[6-(1-Ethyl-propylamino)-2-(2-piperidin-1-yl-ethylamino)-purin-9-yl]-5-(2-methyl-2H-tetrazol-5-yl)-tetrahydro-furan-3,4-diol Diformate [Example 24]”, the “A3 EC50 as a ratio of that of NECA” value at adenosine 3 receptor was above 157. The “A2a EC50 as a ratio of that of NECA” value on adenosine 2a receptor was determined as 0.36. Further, the “A1 EC50 as a ratio of that of NECA” value at adenosine 1 receptor is above 4798.

For the molecule “(2R,3R,4S,5R)-2-[6-Cyclopentylamino-2-(2-pyrrolidin-1-yl-ethylamino)-purin-9-yl]-5-(2-methyl-2H-tetrazol-5-yl)-tetrahydro-furan-3,4-diol bis(Formate) [Example 112]”, at adenosine 3 receptor, the “A3 EC50 as a ratio of that of NECA” value is reported as above 315. Moreover, the “A2a EC50 as a ratio of that of NECA” value at adenosine 2a receptor stood at 2.19. The “A1 EC50 as a ratio of that of NECA” value on adenosine 1 receptor was determined as 472.30.

On to “(2R,3S,4R,5R)-2-(2-Ethyl-2H-tetrazol-5-yl)-5-[6-(1S-hydroxymethyl-2-ethylamino)-2-(2-morpholin-4-yl-ethylamino)-purin-9-yl]-tetrahydro-furan-3,4-diol Formate [Example 78]”, for which the “A3 EC50 as a ratio of that of NECA” value at adenosine 3 receptor is recorded as above 181. Also, the “A2a EC50 as a ratio of that of NECA” value at adenosine 2a receptor is reported as 4.00. On adenosine 1 receptor, the “A1 EC50 as a ratio of that of NECA” value was 31.00.
